In patent US4927975A, “Process for preparing certain decahydro-7H-3-ol-7-ones” (Roussel Uclaf, priority 1981, dated 1990):

Experiments:
[1] = tested on: costovertebral organ of hamsters; assay: Costovertebral organ study repeated with female hamsters (antiandrogenic activity, topical); format: in vivo; conditions: for inhibition of the weight increase of the organ: right costovertebral organ, topical 5 mg/day
Protocol: (§1) Male golden hamsters weighing 100 to 110 g castrated 7 days earlier received a subcutaneous injection of 125 μg per day and per animal of testosterone propionate in 0.2 ml of a sesame oil solution containing 0.5% of benzyl alcohol. One group of animals received also a treatment by topical application of an ethanol solution of the test compound on the right costovertebral organ and the left costovertebral organ received only ethanol. The treatment lasted for 8 days and 24 hours after the last, the costovertebral organs and the prostate were removed and weighed.
The study was repeated with female hamsters to test the antiandrogenic activity of the compounds of Examples 7 and 13 at a dose of 5 mg/day and the results are reported in Table III.
The test was repeated on female hamsters to determine the antiandrogenic activity of the compounds of Examples 13 to 17 at 1 mg/day and the results are reported in Table IV.

[2] = tested on: costovertebral organ of hamsters; assay: In vivo study with costovertebral organ of hamsters (male, castrated, testosterone propionate-treated, topical test product); parameters: species or system Male golden hamsters; conditions: for Control Gland in mg / Treated Gland in mg: Table II, 8 days; for Control Gland in mg: left costovertebral organ (ethanol only), testosterone propionate s.c. alone or + product B 1 mg/day; for Treated Gland in mg: testosterone propionate s.c. alone or + product B 1 mg/day topical
Protocol: (§2) B. In vivo study with costovertebral organ of hamsters
as §1

[3] = tested on: male mice; assay: Acute toxicity in male mice; format: in vivo; conditions: 7th day
Protocol: Five male mice weighing 18 to 20 g received an intraperitoneal or oral administration of decreasing doses of product B in aqueous solution containing 0.25% of carboxymethyl cellulose and 0.2% of Tween at 1000, 600 or 400 mg/kg and the number of dead mice was determined on the 7th day. The DLo or the more elevated dose at which no mortality was observed was determined to be 400 mg/kg intraperitoneally and 1000 mg/kg orally for product B.

[4] = tested on: prostate; assay: In vivo study with hamsters: prostate weight (male, castrated, testosterone propionate-treated, topical test product); parameters: species or system Male golden hamsters; conditions: for Prostate in mg: Table II, testosterone propionate s.c. alone or + product B 1 mg/day topical, 8 days
Protocol: as §2, §1

[5] = Table III, testosterone propionate alone or + product 5 mg/day
[6] = Table III, testosterone propionate alone or + product 5 mg/day topical
[7] = Table IV, testosterone propionate alone or + product 1 mg/day
[8] = Table IV, testosterone propionate alone or + product 1 mg/day topical

Compound	Control Gland in mg [1, 5]	Treated Gland in mg [1, 6]	inhibition of the weight increase of the organ [1]	% inhibition of weight increase ([1]; Table IV, 1 mg/day topical)	Control Gland in mg [1, 7]	Treated Gland in mg [1, 8]	Control Gland in mg [2]	Treated Gland in mg ([2]; right costovertebral organ)	antagonism of the effect of testosterone propionate on the untreated gland ([2]; left (untreated) gland, product applied locally to right costovertebral organ)	inhibition in the weight increase of the organ ([2]; right costovertebral organ, male hamsters, topical 1 mg/day)	DLo (more elevated dose at which no mortality was observed) ([3]; intraperitoneal)	DLo (more elevated dose at which no mortality was observed) ([3]; oral)	Prostate in mg [4]	systemic effect ([4]; inferred from untreated gland and prostate after local application)	antagonism of the effect of testosterone propionate on the prostate ([4]; product applied locally to right costovertebral organ)
CCCC(=O)O[C@H]1CCC2C3CCC(=O)C(CC)=C3CC[C@@]21C (stereo partly shown) [Example 7, Butanoate of 3aβ-methyl-6-ethyl-7-oxo-1,2,3,3a,4,5,8,9,9a,9b-decahydro-1H-benz(e)-inden-3-yl]	9,5 ± 0,8 mg	4,5 ± 0,4 mg	90%												
CCC1=C2CC[C@@]3(C)C(CC[C@@H]3OC(C)=O)C2CCC1=O (stereo partly drawn) [Example 13, 3β-acetoxy-3aβ-methyl-6-ethyl-1,2,3,3a,4,5,8,9,9a,9b-decahydro-7H-benz(e)-inden-7-one]	10,8 ± 2,1 mg	3,9 ± 0,4 mg	95.6%	61%	9,9 ± 1,6 mg	6,0 ± 0,2 mg									
CCC1=C2CC[C@@]3(C)C(CC[C@@H]3O)C2CCC1=O (stereo partly drawn) [Product B, 3aβ-methyl-6-ethyl-1,2,3,3a,4,5,8,9,9a,9b-decahydro-7-H-benz(e)-inden-3β-ol-7-one]							41,8 ± 5,2 mg	17,1 ± 2,2 mg	did not antagonize the effect of testosterone propionate on the untreated gland	61%	400 mg/kg	1000 mg/kg	80,1 ± 9,3 mg	does not have a systemic effect	did not antagonize the effect of testosterone propionate on the untreated gland or the prostate
CCC(=O)O[C@H]1CC[C@H]2[C@@H]3CCC4=CC(=O)CC[C@]4(C)[C@H]3CC[C@]12C [Testosterone Propionate, testosterone propionate, reference compound]	15,8 ± 1,0 mg	14,9 ± 1,1 mg			11,0 ± 2,0 mg	10,2 ± 0,6 mg	35,8 ± 5,0 mg	33,91 ± 2,9 mg					79,5 ± 5,5 mg		
